The values that follow come from patent US20090111836A1, “Angular Pyranocoumarins, Process for Preparation and Uses Thereof” (CITY UNIVERSITY OF HONG KONG, priority 2007, published 2009).

The term IC50 denotes the concentration that gives 50% inhibition.

For one assay, the system named is KB-3-1 cells. Briefly: SRB growth inhibition assay, KB-3-1. In kind it is cell-based. The note with it: Homo sapiens, read-out: IC50 (cytotoxicity).
For the next assay, the system named is KB V1 cells. The experiment in a line: SRB growth inhibition assay, KB V1. In kind it is cell-based, human. The note with it: for IC50: Homo sapiens, read-out: IC50 (cytotoxicity); for Resistant ratio: IC50 KB V1 / IC50 KB-3-1.
Assay [1] concerns HepG2 cells. The experiment in a line: SRB growth inhibition assay, HepG2. In kind it is cell-based. Conditions: Homo sapiens, read-out: IC50 (cytotoxicity). As for the experimental part:
(§1) K562, K562-DR, HepG2, HepG2-DR were cultured in RPMI-1640 medium containing 10% fetal bovine serum and 100 U/mL, antibiotics. […] Drug test: […] New calorimetric cytotoxicity assay for anticancer-drug screening. […] Mosmann T. Rapid colorimetric assay for cellular growth and survival: application to proliferation and cytotoxicity assays. […] Gerlier D, Thomasset N. […] Each growth inhibition experiment must be repeated three times and results are expressed as mean±standard deviation (SD). Solvents and media were included as blank control. In SRB assay, cells are inoculated at 5000 cells/well in a 96-well microplate and incubated overnight to let cells adhere. Drug treatment lasts for 72 hours and cells are fixed for 1 hour at 4° C. with 50 μl ice-cold 15% trichloroacetic acid and washed with triple-distilled water 5 times. […] The protein-bound dye is dissolved in 100 μl per well of 10 mM Tris base (pH 10.5). The color intensity of SRB, which positively correlate to cell number in preliminary experiments, is estimated at OD 515 nm.

Assay [2] has as its system HepG2-DR cells. The experiment in a line: SRB growth inhibition assay, HepG2-DR. The class given is cell-based, human. Conditions: for IC50: Homo sapiens, 72 h, read-out: IC50 (cytotoxicity); for Resistant ratio: IC50 HepG2-DR / IC50 HepG2. On the procedure: as §1
In the next assay the test system is K562 cells. The experiment in a line: MTT growth inhibition assay, K562. In kind it is cell-based. The note with it: Homo sapiens. On the procedure:
(§2) K562, K562-DR, HepG2, HepG2-DR were cultured in RPMI-1640 medium containing 10% fetal bovine serum and 100 U/mL, antibiotics. […] Drug test: […] New calorimetric cytotoxicity assay for anticancer-drug screening. […] Mosmann T. Rapid colorimetric assay for cellular growth and survival: application to proliferation and cytotoxicity assays. […] Gerlier D, Thomasset N. […] Each growth inhibition experiment must be repeated three times and results are expressed as mean±standard deviation (SD). Solvents and media were included as blank control. In MTT assay, cells are inoculated at 5000 cells/well and are incubated overnight. Drug treatment lasts for 68 h. MTT (5 mg/ml in PBS) is added to each well (1:10 dilution). […] Viable cell number is estimated by correlating to OD at 570 nm.
In general terms: Tetrazolium dyes change colour on reduction, which living cells bring about.

The test system of another assay is K562-DR cells. The experiment in a line: MTT growth inhibition assay, K562-DR. In kind it is cell-based, human. Conditions: for IC50: Homo sapiens, read-out: IC50 (cytotoxicity); for Resistant ratio: IC50 K562-DR / IC50 K562. On the procedure: as §2
In assay [3] the test system is HepG2 cells. Briefly: Cell cycle distribution by flow cytometry, HepG2. The class given is cell-based, human. As for the experimental part:
(§3) 1.2 Instruments: FACSCAN flow cytometry (Becton Dickinson Immunocytometry Systems, San Jose, Calif.), the obtained data were analyzed using the software of Macintosh CellQuest.
(§4) 1.3 Cell lines: HepG2, HepG2-DR.
(§5) 1.4 Drug treatment: HepG2 and HepG2-DR cells were respectively treated with each of cis-DMDCK, cis-DMDBK, trans-DMDCK, trans-DMDBK and doxorubicin for 48 hours, or treated respectively with the combination of doxorubicin and one of cis-DMDCK, cis-DMDBK, trans-DMDCK, trans-DMDBK for 48 hours.
(§6) 1.5 Treatment and detection of sample cells: after washed twice by ice-cold PBS, the cells were fixed with 70% ethanol at −20° C. overnight. The fixed cells were washed by PBS once and resuspended in 1 mL of PBS containing 100 μg/mL RNAase A and incubated at 37° C. for 30 minutes. Finally, propidium iodide solution (final concentration is 40 μg/mL,) was added to bind with DNA and incubated at room temperature for 5-10 minutes. Cells were analyzed by FACSCAN flow cytometry immediately.
For orientation: A flow cytometer gives signals particle by particle.

Assay [4] concerns HepG2-DR cells. Briefly: Cell cycle distribution by flow cytometry (doxorubicin-induced G2/M arrest), HepG2-DR. In kind it is cell-based, human. The note with it: for Cell cycle distribution, G0/G1 / Cell cycle distribution, G2/M / Cell cycle distribution, S / Cell cycle distribution, SubG1: HepG2-DR, 48 h. As for the experimental part:
as §3, §4, §5, §6

The next assay has as its system Pgp-MDR cells. Conditions: Wu et al., Eur J Pharmacol 2003; cited from earlier work.
Where [5] appears, read: K562, MTT, (×10^−3), read-out: IC50 (cytotoxicity).

Like-named read-outs stand apart in the source and are kept apart here.

As for `COc1cccc2c1C(=O)c1c(O)c3c(c(O)c1C2=O)C[C@@](O)(C(=O)CO)C[C@@H]3O[C@H]1C[C@H](N)[C@H](O)[C@H](C)O1` [Doxorubicin, reference compound], the concentration for half-maximal inhibition (IC50) in the assay with KB-3-1 cells (KB-3-1, SRB, 72 h) is 180 ± 40 nM; with KB V1 cells (KB V1, SRB, 72 h), 32000 ± 2740 nM; in the assay on HepG2 cells [1] (HepG2, SRB, 72 h), 170 ± 100 nM; with HepG2-DR cells [2] (HepG2-DR, SRB), 37300 ± 2420 nM; with K562 cells (K562, MTT, read-out: IC50 (cytotoxicity)), 240 ± 80 nM; in the assay on K562-DR cells (K562-DR, MTT), 31000 ± 17100 nM. For the same molecule, the Resistant ratio in the assay on KB V1 cells was 178; in the assay on HepG2-DR cells [2], 219; in the assay with K562-DR cells it was 129. The “Cell cycle distribution, G0/G1” value was determined as 4.92 ± 0.91% with HepG2 cells [3] (HepG2, 0.2 μM alone, 48 h); 51.33 ± 0.92% with HepG2-DR cells [4] (1 μM alone); 24.81 ± 0.23% in the assay on HepG2-DR cells [4] (10 μM alone); 12.05 ± 5.08% with HepG2-DR cells [4] (50 μM alone). Further, the “Cell cycle distribution, G2/M” value in the assay on HepG2 cells [3] (HepG2, 0.2 μM alone, 48 h) was 76.57 ± 1.32%; in the assay with HepG2-DR cells [4] (1 μM alone), 33.47 ± 0.17%; in the assay with HepG2-DR cells [4] (10 μM alone), 60.80 ± 0.79%; in the assay with HepG2-DR cells [4] (50 μM alone) it was 73.43 ± 9.00%. The “Cell cycle distribution, S” value turned out to be 8.89 ± 0.83% in the assay on HepG2 cells [3] (HepG2, 0.2 μM alone, 48 h); 7.74 ± 3.57% in the assay with HepG2-DR cells [4] (1 μM alone); 6.86 ± 1.80% in the assay on HepG2-DR cells [4] (10 μM alone); 5.58 ± 1.34% with HepG2-DR cells [4] (50 μM alone). Moreover, the “Cell cycle distribution, SubG1” value in the assay on HepG2 cells [3] (HepG2, 0.2 μM alone, 48 h) is given as 0.92 ± 0.45%; with HepG2-DR cells [4] (1 μM alone), 2.37 ± 0.34%; in the assay on HepG2-DR cells [4] (10 μM alone), 3.37 ± 0.17%; with HepG2-DR cells [4] (50 μM alone), 4.88 ± 0.75%. Also, in the assay on HepG2 cells [3] (drug sensitive HepG2 cells), the “Concentration achieving almost a complete G2/M arrest” value was 0.2 µM. The “Concentration required for almost a complete G2/M arrest” value with HepG2-DR cells [4] (P-glycoprotein-overexpressing HepG2-DR cells) is “over 50 μM”.
As to `CC(=O)O[C@H]1C(=O)[C@@]2(C)[C@H]([C@H](OC(=O)c3ccccc3)[C@]3(O)C[C@H](OC(=O)[C@H](O)[C@@H](NC(=O)c4ccccc4)c4ccccc4)C(C)=C1C3(C)C)[C@]1(OC(C)=O)CO[C@@H]1C[C@@H]2O` [Paclitaxel], the IC50 with KB-3-1 cells (KB-3-1, SRB, 72 h) is 2 ± 1 nM; with KB V1 cells (KB V1, SRB, 72 h), 8000 ± 1480 nM; with HepG2 cells [1] (HepG2, SRB, 72 h, (×10^−3)), 6.07 ± 2.61 nM; with HepG2-DR cells [2] (HepG2-DR, SRB) it was 4230 ± 60 nM; in the assay with K562 cells (setting [5]), 0.6 ± 0.23 nM; in the assay on K562-DR cells (K562-DR, MTT), 3250 ± 450 nM. Also, the Resistant ratio with KB V1 cells is given as 4000; in the assay with HepG2-DR cells [2] it was 696; in the assay with K562-DR cells, 5417.
Regarding `COc1ccc(C[C@H](N)C(=O)N[C@H]2[C@@H](O)[C@H](n3cnc4c(N(C)C)ncnc43)O[C@@H]2CO)cc1` [Puromycin], the concentration for half-maximal inhibition (IC50) stood at 210 ± 50 nM in the assay on KB-3-1 cells (KB 3-1, 72 h); 79300 ± 8810 nM in the assay with KB V1 cells (KB-V1, 72 h); 170 ± 70 nM in the assay on HepG2 cells [1] (HepG2, 72 h); 104000 ± 2480 nM with HepG2-DR cells [2]; 390 ± 160 nM in the assay on K562 cells (K562, read-out: IC50 (cytotoxicity)); 47700 ± 9000 nM in the assay with K562-DR cells. In addition, the figures for the Resistant ratio in the assay on KB V1 cells, in the assay on HepG2-DR cells [2] and in the assay on K562-DR cells were 378, 597 and 122, respectively.
As to `CC[C@]1(O)C[C@@H]2CN(CCc3c([nH]c4ccccc34)[C@@](C(=O)OC)(c3cc4c(cc3OC)N(C)[C@H]3[C@@](O)(C(=O)OC)[C@H](OC(C)=O)[C@]5(CC)C=CCN6CC[C@]43[C@@H]65)C2)C1` [Vinblastine], the concentration for half-maximal inhibition (IC50) with KB-3-1 cells (KB-3-1, SRB, 72 h, (×10^−3)) worked out at 0.11 ± 0.01 nM; with KB V1 cells (KB V1, SRB, 72 h) it was 1040 ± 340 nM; in the assay on HepG2 cells [1] (HepG2, SRB, 72 h, (×10^−3)), 0.1 ± 0.01 nM; with HepG2-DR cells [2] (HepG2-DR, SRB), 310 ± 60 nM; in the assay on K562 cells (setting [5]), 0.88 ± 0.25 nM; with K562-DR cells (K562-DR, MTT) it was 200 ± 70 nM. The Resistant ratio in the assay on KB V1 cells came to 9271; in the assay on HepG2-DR cells [2], 3100; in the assay with K562-DR cells, 227.
Take (±)-Praeruptorin A: in the assay with Pgp-MDR cells, the “Enhancement of drug sensitivity of Pgp-MDR cells” value is “only moderate”.
